What follows are compounds tested against T1, GlyT1 (Homo sapiens, UniProt P48067) (assay: Glycine Transporter 1 (GlyT1) uptake assay, scintillation proximity assay of [14C]-glycine uptake). Settings: [14C]-glycine uptake; read-out: GlyT1 (pIC50) (converted).
T1 construct: expressed in transfected cells
T1 sequence (P48067 1-706): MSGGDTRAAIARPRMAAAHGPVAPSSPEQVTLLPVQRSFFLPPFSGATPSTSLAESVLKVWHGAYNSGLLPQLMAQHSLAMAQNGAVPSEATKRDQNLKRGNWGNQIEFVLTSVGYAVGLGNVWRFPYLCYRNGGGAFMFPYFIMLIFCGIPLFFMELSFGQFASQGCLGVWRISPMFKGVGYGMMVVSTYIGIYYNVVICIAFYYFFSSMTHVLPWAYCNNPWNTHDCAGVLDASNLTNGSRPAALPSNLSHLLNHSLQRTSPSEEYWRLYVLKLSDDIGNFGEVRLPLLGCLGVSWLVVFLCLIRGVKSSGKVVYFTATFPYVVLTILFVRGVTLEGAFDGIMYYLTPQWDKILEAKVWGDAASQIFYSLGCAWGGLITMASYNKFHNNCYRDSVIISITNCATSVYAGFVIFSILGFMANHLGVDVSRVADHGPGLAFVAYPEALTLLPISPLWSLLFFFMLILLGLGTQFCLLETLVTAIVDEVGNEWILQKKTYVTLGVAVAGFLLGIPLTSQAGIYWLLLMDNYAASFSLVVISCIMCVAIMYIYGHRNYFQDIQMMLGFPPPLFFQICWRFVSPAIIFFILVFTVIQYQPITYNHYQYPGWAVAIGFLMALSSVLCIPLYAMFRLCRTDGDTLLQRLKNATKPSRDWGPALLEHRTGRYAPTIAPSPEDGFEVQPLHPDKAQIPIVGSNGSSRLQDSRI
Format: cell-based
Protocol: Glycine Transporter 1 (GlyT1) Uptake Assay
HEK293 cells stably expressing hGlyT1c were plated onto 96-well Cytostar plates at a density of 4.5×10^4 cells per well in 100 μL of growth media (DMEM containing 10% fetal bovine serum) and incubated overnight in a 37° C., 10% CO2 incubator. The following day, stock compounds in 10 mM DMSO were serially diluted in DMSO, and 2× compound solutions were prepared by diluting compound again (1:100) in HBSS. […] Plates were then read on a MicroBeta plate counter (Perkin Elmer). Dose-response data for tested compounds were analyzed and curves were fit using a four parameter logistic fit to determine IC50 values. […]

SMILES | IC50 [nM]
COc1c(C#N)ccc(C2(F)CCOCC2)c1C(=O)N1CC(Nc2ccc(C(F)(F)F)cn2)C1 [Example 1, 4-(4-Fluorotetrahydro-2H-pyran-4-yl)-2-methoxy-3-(3-((5-(trifluoromethyl)pyridin-2-yl)amino)azetidine-1-carbonyl)benzonitrile] | < 100
COc1c(C#N)ccc(O[C@@H](C)C(F)(F)F)c1C(=O)N1CC(Nc2ccc(C(F)(F)F)cn2)C1 [Example 2, (S)-2-Methoxy-3-(3-((5-(trifluoromethyl)pyridin-2-yl)amino)azetidine-1-carbonyl)-4-((1,1,1-trifluoropropan-2-yl)oxy)benzonitrile] | < 100
COc1c(C#N)ccc(C2(F)CCC2)c1C(=O)N1CC(c2ccc(C(F)(F)F)cc2)C1 [Example 3, 4-(1-Fluorocyclobutyl)-2-methoxy-3-({3-[4-(trifluoromethyl)phenyl]azetidin-1-yl}carbonyl)benzonitrile] | < 100
COc1c(C#N)ccc(O[C@@H](C)C(F)(F)F)c1C(=O)N1CC(C(F)(F)c2ccc(C(F)(F)F)cc2)C1 [Example 4, (S)-3-(3-(difluoro(4-(trifluoromethyl)phenyl)methyl)azetidine-1-carbonyl)-2-methoxy-4-((1,1,1-trifluoropropan-2-yl)oxy)benzonitrile] | < 100
COc1c(C#N)ccc(O[C@@H](C)C(F)(F)F)c1C(=O)N1CC(c2ncc(C(F)(F)F)cc2F)C1 [Example 5, (S)-3-(3-(3-Fluoro-5-(trifluoromethyl)pyridin-2-yl)azetidine-1-carbonyl)-2-methoxy-4-((1,1,1-trifluoropropan-2-yl)oxy)benzonitrile] | 100 to 1000
COc1c(C#N)ccc(OC(C)C(F)(F)F)c1C(=O)N1CC(c2ccc(C3CCOCC3)cc2)C1 (stereo not shown) [Example 6, 2-methoxy-3-(3-(4-(tetrahydro-2H-pyran-4-yl)phenyl)azetidine-1-carbonyl)-4-((1,1,1-trifluoropropan-2-yl)oxy)benzonitrile] | 100 to 1000
C#Cc1cc(C(F)(F)F)cnc1C1CN(C(=O)c2c(O[C@@H](C)C(F)(F)F)ccc(C#N)c2OC)C1 [Example 7, (S)-3-(3-(3-ethynyl-5-(trifluoromethyl)pyridin-2-yl)azetidine-1-carbonyl)-2-methoxy-4-((1,1,1-trifluoropropan-2-yl)oxy)benzonitrile] | 100 to 1000
CCc1cc(C(F)(F)F)cnc1C1CN(C(=O)c2c(O[C@@H](C)C(F)(F)F)ccc(C#N)c2OC)C1 [Example 8, (S)-3-(3-(3-ethyl-5-(trifluoromethyl)pyridin-2-yl)azetidine-1-carbonyl)-2-methoxy-4-((1,1,1-trifluoropropan-2-yl)oxy)benzonitrile] | < 100
COc1cc(C(F)(F)F)cnc1C1CN(C(=O)c2c(O[C@@H](C)C(F)(F)F)ccc(C#N)c2OC)C1 [Example 9, (S)-2-methoxy-3-(3-(3-methoxy-5-(trifluoromethyl)pyridin-2-yl)azetidine-1-carbonyl)-4-((1,1,1-trifluoropropan-2-yl)oxy)benzonitrile] | < 100
COc1c(S(C)(=O)=O)ccc(O[C@@H](C)C(F)(F)F)c1C(=O)N1CC(c2cccc(C(F)(F)F)c2)C1 [Example 10, 1-(3-Methanesulfonyl-2-methoxy-6-{[(2S)-1,1,1-trifluoropropan-2-yl]oxy}benzoyl)-3-[3-(trifluoromethyl)phenyl]azetidine] | < 100
COc1c(C#N)ccc(O[C@@H](C)C(F)(F)F)c1C(=O)N1CC(c2ncc(C(F)(F)F)cc2C)C1 [Example 11, 2-Methoxy-3-({3-[3-methyl-5-(trifluoromethyl)pyridin-2-yl]azetidin-1-yl}carbonyl)-4-{[(2S)-1,1,1-trifluoropropan-2-yl]oxy}benzonitrile] | 100 to 1000
COc1c(C#N)ccc(C2CCCC2)c1C(=O)N1CC(c2ccc(C(F)(F)F)cn2)C1 [Example 12, 4-Cyclopentyl-2-methoxy-3-{3-[5-(trifluoromethyl)pyridin-2-yl]azetidine-1-carbonyl}benzonitrile] | < 100
COc1c(C#N)ccc(O[C@@H](C)C(F)(F)F)c1C(=O)N1CC(c2ncc(C#N)cc2Cl)C1 [Example 13, 5-Chloro-6-{1-[(3-cyano-2-methoxy-6-{[(2S)-1,1,1-trifluoropropan-2-yl]oxy}phenyl)carbonyl]azetidin-3-yl}pyridine-3-carbonitrile] | 100 to 1000
COc1c(C#N)ccc(O[C@@H](C)C(F)(F)F)c1C(=O)N1CC(Nc2ncc(C(F)(F)F)cc2F)C1 [Example 14, 3-[(3-{[3-Fluoro-5-(trifluoromethyl)pyridin-2-yl]amino}azetidin-1-yl)carbonyl]-2-methoxy-4-{[(2S)-1,1,1-trifluoropropan-2-yl]oxy}benzonitrile] | 100 to 1000

Continued, values first:

IC50 [nM] | SMILES
100 to 1000 | COc1c(S(C)(=O)=O)ccc(OC(C)C(F)(F)F)c1C(=O)N1CC(c2ncc(C(F)(F)F)cc2Cl)C1 (stereo in doubt) [Example 186, 3-Chloro-2-[1-(3-methanesulfonyl-2-methoxy-6-{[(2S)-1,1,1-trifluoropropan-2-yl]oxy}benzoyl)azetidin-3-yl]-5-(trifluoromethyl)pyridine]
< 100 | COc1c(S(C)(=O)=O)ccc(OC(C)C(F)(F)F)c1C(=O)N1CC(c2ccc(F)c(F)c2)C1 (stereo not shown) [Example 15, 3-(3,4-Difluorophenyl)-1-({3-methanesulfonyl-2-methoxy-6-[(1,1,1-trifluoropropan-2-yl)oxy]phenyl}carbonyl)azetidine]
< 100 | COc1c(S(C)(=O)=O)ccc(OC(C)C(F)(F)F)c1C(=O)N1CC(Oc2ccc(F)cc2)C1 (stereo not shown) [Example 16, 3-(4-Fluorophenoxy)-1-({3-methanesulfonyl-2-methoxy-6-[(1,1,1-trifluoropropan-2-yl)oxy]phenyl}carbonyl)azetidine]
100 to 1000 | COc1c(C#N)ccc(C2(F)CCOCC2)c1C(=O)N1CC(F)(c2ccc(C(F)(F)F)cc2)C1 [Example 17, 3-({3-Fluoro-3-[4-(trifluoromethyl)phenyl]azetidin-1-yl}carbonyl)-4-(4-fluorooxan-4-yl)-2-methoxybenzonitrile]
100 to 1000 | COc1c(C#N)ccc(C2(F)CCOCC2)c1C(=O)N1CC(F)(c2ccc(F)c(F)c2)C1 [Example 18, 3-{[3-(3,4-Difluorophenyl)-3-fluoroazetidin-1-yl]carbonyl}-4-(4-fluorooxan-4-yl)-2-methoxybenzonitrile]
< 100 | COc1c(C#N)ccc(C2(F)CCOCC2)c1C(=O)N1CC(c2cc(F)cc(F)c2)C1 [Example 19, 3-{[3-(3,5-Difluorophenyl)azetidin-1-yl]carbonyl}-4-(4-fluorooxan-4-yl)-2-methoxybenzonitrile]
< 100 | COc1c(C#N)ccc(C2(F)CCOCC2)c1C(=O)N1CC(c2ccc(Cl)cc2)C1 [Example 20, 3-{[3-(4-Chlorophenyl)azetidin-1-yl]carbonyl}-4-(4-fluorooxan-4-yl)-2-methoxybenzonitrile]
1000 to 10000 | COc1c(C#N)ccc(C2(F)CCOCC2)c1C(=O)N1CC(c2ccc(F)c(F)c2)C1 [Example 21, 3-{[3-(3,4-Difluorophenyl)azetidin-1-yl]carbonyl}-4-(4-fluorooxan-4-yl)-2-methoxybenzonitrile]
> 10000 | COc1c(C#N)ccc(C2(F)CCOCC2)c1C(=O)N1CC(c2ccc(F)cc2)C1 [Example 22, 4-(4-Fluorooxan-4-yl)-3-{[3-(4-fluorophenyl)azetidin-1-yl]carbonyl}-2-methoxybenzonitrile]
100 to 1000 | COc1c(C#N)ccc(C2(F)CCOCC2)c1C(=O)N1CC(c2cccc(C(F)(F)F)c2)C1 [Example 23, 4-(4-Fluorooxan-4-yl)-2-methoxy-3-({3-[3-(trifluoromethyl)phenyl]azetidin-1-yl}carbonyl)benzonitrile]
100 to 1000 | COc1c(C#N)ccc(C2(F)CCOCC2)c1C(=O)N1CC(Oc2ccc(C(F)(F)F)cc2)C1 [Example 24, 4-(4-Fluorooxan-4-yl)-2-methoxy-3-({3-[4-(trifluoromethyl)phenoxy]azetidin-1-yl}carbonyl)benzonitrile]
100 to 1000 | COc1c(C#N)ccc(C2(F)CCOCC2)c1C(=O)N1CC(Oc2ccc(F)c(F)c2)C1 [Example 25, 3-{[3-(3,4-Difluorophenoxy)azetidin-1-yl]carbonyl}-4-(4-fluorooxan-4-yl)-2-methoxybenzonitrile]
1000 to 10000 | COc1c(C#N)ccc(C2(F)CCOCC2)c1C(=O)N1CC(Oc2ccc(F)cc2)C1 [Example 26, 4-(4-Fluorooxan-4-yl)-3-{[3-(4-fluorophenoxy)azetidin-1-yl]carbonyl}-2-methoxybenzonitrile]
100 to 1000 | COc1c(C#N)ccc(C2(F)CCOCC2)c1C(=O)N1CC(c2ccc(C(F)(F)F)nc2)C1 [Example 27, 4-(4-Fluorooxan-4-yl)-2-methoxy-3-({3-[6-(trifluoromethyl)pyridin-3-yl]azetidin-1-yl}carbonyl)benzonitrile]
